The values below come from patent US6884577B2, “Methods for screening compounds for estrogenic activity” (The Regents of the University of California, priority 1993, dated 2005).

Experiment [1] deals with ER activation of AP-1 (Coll73-LUC). Put plainly: Inhibitor screen: ER transiently transfected with Coll73-LUC in HeLa or HepG2 cells, hormone plus prospective inhibitor. In kind it is cell-based. The protocol: (§1) An estrogen receptor (ER) was transiently transfected into either HeLa or HepG2 cells along with an AP-1 responsive reporter gene, Coll73-LUC. The transformed cells were then contacted with antiestrogens or estrogen in combination with prospective inhibitor drugs. […] Luciferase was measured in cell extracts as an indication of AP-1 dependent promoter activity.

Experiment [2] deals with HE15 activation of AP-1 activity. Description: Inhibitor screen: HE15 (constitutive ER) activation of AP-1 activity. The format is cell-based. The settings on record: HeLa cells. The protocol:
as §1

The next experiment has as its system MCF-7 cell. To be noted: Braacke et al. 1991; cited from earlier work.
The test system of experiment [3] is ER at the AP-1 site of the collagenase promoter. Description: Collagenase promoter reporter in cells that express endogenous ER (Ishikawa, MCF-7, ZR-75-1). In kind it is cell-based. The settings on record: for activation of the collagenase promoter (coll73-CAT) / induction of the collagenase promoter (coll73-LUC): Ishikawa cells; for activation of the collagenase promoter (coll73-CAT): endogenous receptor, FIG. 4A; for induction of the collagenase promoter (coll73-LUC): receptor levels raised by transfection.
Method: Left panel, coll73-CAT response with endogenous ER contrasted with the response of an ERE regulated reporter, ERE-coll60CAT. Right panel, coll73-LUC response with 3 μg co-transfected expression vector for human ER. Averages of three individual experiments are shown. […] A single representative experiment with triplicate hormone treatments is shown.
(§4) To further explore this phenomenon, and to test whether similar hormone effects could be detected at physiological levels of ER, the expression of the collagenase promoter in cells that express endogenous ER was examined.

For experiment [4], the system named is ER at classical ERE, ERC1 cells. Description: Estrogenic activity screen: CAT reporter gene linked to a classical ERE in ERC1 cells. The format is cell-based, human. To be noted: ICI 164384 with series 4 compounds. The procedure:
A library of hydroxystilbene derivatives as shown in FIG. 9 was screened for estrogenic activity in cell culture assays using a CAT reporter gene linked to a classical ERE in ERC1 cells as described in Webb et al., supra. After transient transfection with CAT reporter genes, each hydroxystilbene was added to the cultured ERC 1 cells. ER-regulated response was compared either to treatment with 17β-estradiol as a calibration standard or to treatment with an ethanolic vehicle.
Dose response experiments were performed on the series 4 compounds over a concentration range of 0-100 μM (FIG. 1).
A general note: A reporter such as luciferase makes a cellular process visible.

The subject of experiment [5] is human ER at the AP-1 site (collagenase promoter, AP-1-tk), HeLa cells. Description: CAT assays of HeLa cells transfected with AP-1 site reporter genes and human ER expression vector. In kind it is cell-based. The protocol:
Representations, at left, show the human collagenase promoter (shaded) and the consensus AP-1 site. […] CAT activity is normalized to a transfection control with the actin promoter driving expression of βHCG. Single representative experiments are shown, error bars represent standard deviation of triplicate hormone treatments.
(§2) Cells were maintained and transfected as previously described in Webb et al., supra. […] F9 cells were seeded at 30% confluence upon 1.5 cm dishes and transfected overnight by calcium phosphate coprecipitation with 5 μg reporter gene, 1 μg actin β-HCG, and 1 μg of HEO, 300 ng each of c-jun and c-fos expression vectors. The cells were glycerol shocked and refed in growth medium containing hormone or ethanolic vehicle.
(§3) CAT assays were carried out as described in Webb et al., except that the cells were harvested one to two days after transfection instead of three. CAT activities were defined as the increase in cpm per hour at room temperature (corrected for background) per 100 μl of cell extract, normalized to production of 100 standard units of βHCG, from a co-transfected reporter gene, actin-HCG. […] Light units were defined as the luciferase activity per 100 μl of cell extract per 100 standard units of βHCG. Relative luciferase activities were calculated with respect to the results that were obtained in the absence of ER and hormone, which was set at 1 unit. For the data presented in Table I triplicate points were determined.
To further examine the effects of antiestrogens on the AP-1 directed pathway, reporter genes derived from the human collagenase promoter were transfected into HeLa cells.

Experiment [6] deals with human ER at the AP-1 site of the collagenase promoter (coll73). Put plainly: Coll73-LUC luciferase reporter (collagenase promoter with AP-1 site) in cells transfected with human ER expression vector HEO. In kind it is cell-based. The settings on record: for Coll73 Luciferase Activity: relative to no ER; for half maximal dose relative to that for estrogen, induction of coll73-LUC: HeLa cells, 5 μg ER expression vector, FIG. 3B. The protocol:
All reporter genes described below have been modified by digestion with EcoR I and Ndel to remove a AP-I site in the backbone of pUG. […] Coll73-LUC was constructed by cloning a BamHI/Pvull fragment, that spanned the luciferase transcription unit, from pMG3 into coll73, which had been digested with BamHI and SmaI to remove the CAT transcription unit.
as §2, §3
In each case, the cells were transfected with different amounts of the human ER expression vector HEO to determine the optimal response.

Experiment [7] deals with ER at classical ERE, Ishikawa cells. Description: ERE-coll60CAT reporter in Ishikawa cells. The format is cell-based.
From the text: Left panel, coll73-CAT response with endogenous ER contrasted with the response of an ERE regulated reporter, ERE-coll60CAT. […] Averages of three individual experiments are shown. […] A single representative experiment with triplicate hormone treatments is shown.
as §4
Another experiment deals with ER at classical ERE. Put plainly: Reporter genes containing classical EREs (ERE-coll60, ERE-tk) in cells with ER. The format is cell-based, human. The procedure: FIGS. 2A-2C show antiestrogen stimulation of expression in an intact AP-1 Site, but not at classical EREs. […] Representations, at left, show the human collagenase promoter (shaded) and the consensus AP-1 site. CAT activities were from cells maintained in the absence of hormone or saturating concentrations of ICI 164,384 (ICI, 1 μM), tamoxifen (5 μM) or estradiol ([…]). CAT activity is normalized to a transfection control with the actin promoter driving expression of βHCG. Single representative experiments are shown, error bars represent standard deviation of triplicate hormone treatments.
All reporter genes described below have been modified by digestion with EcoR I and Ndel to remove a AP-I site in the backbone of pUG. Thus, Coll73 and Coll60 are formerly_Coll73 and_Coll60 (Lopez et al. Mol. Cell. Biol. 13:3042-930 (1993)). Coll73-LUC was constructed by cloning a BamHI/Pvull fragment, that spanned the luciferase transcription unit, from pMG3 into coll73, which had been digested with BamHI and SmaI to remove the CAT transcription unit. EREcoll60 and EREcoll73 was prepared by ligation of a consensus ERE ([…], SEQ ID NO:3), into the HindIII site upstream of coll60 and coll73, respectively. All other reporter genes have been previously described (Webb et al. Mol. Endocrinol. 6:157-16725 (1992): and Lopez et al., supra).
Cells were maintained and transfected as previously described in Webb et al., supra. Hormones were added two hours after plating in the following concentrations, estradiol 100 nM, ICI 164,384 1 μM, tamoxifen 5 μM, to ensure saturation of the response. F9 cells were seeded at 30% confluence upon 1.5 cm dishes and transfected overnight by calcium phosphate coprecipitation with 5 μg reporter gene, 1 μg actin β-HCG, and 1 μg of HEO, 300 ng each of c-jun and c-fos expression vectors. The cells were glycerol shocked and refed in growth medium containing hormone or ethanolic vehicle. In transient transfections, optimal amounts of HEO were employed and were as follows: HeLa (5 μg); NIH3T3 (1 μg); HepG2 (1 μg); SHM (300 ng); SY5Y (300 ng); CEF (100 ng); CV-1 (3 μg); MDA453 (3 μg); CHO (100 ng) and F9 (1 μg).
CAT assays were carried out as described in Webb et al., except that the cells were harvested one to two days after transfection instead of three. CAT activities were defined as the increase in cpm per hour at room temperature (corrected for background) per 100 μl of cell extract, normalized to production of 100 standard units of βHCG, from a co-transfected reporter gene, actin-HCG. Luciferase assays were performed as described by Brasier et al. Methods Enzymol 216:386-97 (1992)) on similar extracts that were used for CAT assays. Light units were defined as the luciferase activity per 100 μl of cell extract per 100 standard units of βHCG. Relative luciferase activities were calculated with respect to the results that were obtained in the absence of ER and hormone, which was set at 1 unit. For the data presented in Table I triplicate points were determined. Standard deviations were less than 20%.
The activity of antiestrogens in the AP-1 pathway was also compared with their activity in the classical pathway. […] A promoter with both an ERE and an AP-1 site (ERE-coll73 FIG. 2C) gave a large estrogen response, but retained some response to antiestrogens. Another control reporter, in which the tk promoter was regulated by a classical ERE (ERE-tk FIG. 2C) was also activated by estrogen, but not by antiestrogens.

Setting [8] is: CEF (fibroblast), no hormone, saturating hormone.
The mark [9] stands for this setting: CHO (ovary), no hormone, saturating hormone.
Where [10] appears, read: CV-1 (kidney), no hormone, saturating hormone.
Where [11] appears, read: F9 (teratocarcinoma), no hormone, unliganded ER gave 3.2.
Setting [12] is: HELA (cervix), no hormone = 1, ICI 1 μM, tamoxifen 5 μM, estradiol 100 nM.
Where [13] appears, read: HEP G2 (liver), no hormone, saturating hormone.
Where [14] appears, read: MDA453 (breast), no hormone, saturating hormone.
The mark [15] stands for this setting: NIH 3T3 (fibroblast), no hormone, saturating hormone.
[16] abbreviates: SHM (myometrium), no hormone, saturating hormone.
Setting [17] is: SY5Y (neuroblastoma), no hormone, saturating hormone.

As to `Nc1ncc2[nH]cnc2n1` [2-aminopurine], the “inhibition of hormone action at AP-1 sites” value (“inhibition of hormone action” below) in [1] is “inhibit hormone action at AP-1 sites”. Moreover, the “inhibition of the activation of AP-1 activity by HE15” value (“inhibition … by HE15” below) in [2] is “inhibit”.
On to `CC/C(=C(\c1ccccc1)c1ccc(OCCN(C)C)cc1)c1ccc(O)cc1` [4′-hydroxytamoxifen], for which the “MCF-7 cell invasion activity of a re-constituted basement membrane” value with MCF-7 cell is recorded as “stimulated”.
For `Nc1nc2nc[nH]c2c(=S)[nH]1` [6-thioguanine], the “inhibition of hormone action” value in experiment [1] is recorded as “inhibit hormone action at AP-1 sites”. In experiment [2], the “inhibition … by HE15” value is reported as “inhibit”.
For the compound `O=S(=O)(NCCNC/C=C/c1ccc(Br)cc1)c1cccc2cnccc12` [H89], the “inhibition … by HE15” value in experiment [2] is given as “did not”.
In the case of `CCCCN(C)C(=O)CCCCCCCCCC[C@@H]1Cc2cc(O)ccc2[C@H]2CC[C@]3(C)[C@@H](O)CC[C@H]3[C@H]12` [ICI 164,384], the “activation of the collagenase promoter (coll73-CAT)” value in experiment [3] was “usually inactive”. In experiment [3], the “induction of the collagenase promoter (coll73-LUC)” value is on record as “inductions became detectable”. For the same compound, in experiment [4], the “inhibition of the series 4 estrogenic activity” value is reported as “inhibit the estrogenic activity of all the series 4 compounds”. Besides, the “MCF-7 cell invasion activity of a re-constituted basement membrane” value in the experiment on MCF-7 cell is listed as “blocked”. The “activation of transcription, collagenase AP-1 site upstream of the herpes virus tk promoter” value in experiment [5] is “able to activate transcription”. The “Coll73 Luciferase Activity” value in experiment [6] (setting [8]) worked out at 3.2; in experiment [6] (setting [9]), 1.8; in [6] (setting [10]) it was 3.1; in [6] (setting [11]) it was 2.4; in [6] (setting [12]) it was 3.7; in [6] (setting [13]), 5.2. The “Coll73 Luciferase Activity” value is 1.1 in [6] (setting [14]), 3.0 in [6] (setting [15]), 1.9 in experiment [6] (setting [16]) and 2.3 in experiment [6] (setting [17]). Moreover, the “half maximal dose relative to that for estrogen, induction of coll73-LUC” value in experiment [6] was “about 10 times”. Also, the “expression of ERE-coll60” value in experiment [7] was “neither ICI nor tamoxifen activated”. Further, the “activity at classical EREs” value in the experiment on ER at classical ERE (range of cell types of Table I (data not shown)) was “pure antagonist”.
For the compound `O=c1c(-c2ccc(O)cc2)coc2cc(O)cc(O)c12` [genistein], the “inhibition of hormone action” value in experiment [1] is “inhibit hormone action at AP-1 sites”. In addition, in experiment [2], the “inhibition … by HE15” value is given as “inhibit”.
With `CC/C(=C(\c1ccccc1)c1ccc(OCCN(C)C)cc1)c1ccccc1` [tamoxifen], in experiment [3], the “activation of the collagenase promoter (coll73-CAT)” value is given as “activated”. In addition, the “induction of the collagenase promoter (coll73-LUC)” value in experiment [3] is “inductions became larger”. In addition, the “activation of the collagenase promoter” value in experiment [3] (MCF-7 cells, endogenous ER, FIG. 4B) is reported as “not tamoxifen”; in experiment [3] (ZR-75-1 cells), “The same pattern occurred”. The “activation of transcription, collagenase AP-1 site upstream of the herpes virus tk promoter” value in experiment [5] is “able to activate transcription”. The “activation of the collagenase promoter (coll517, coll73)” value in [5] (transiently expressed human ER, FIG. 2A) is listed as “more potent an activator than estrogen”. Further, the “Coll73 Luciferase Activity” value in experiment [6] (setting [8]) is 2.2; in experiment [6] (setting [9]), 2.2; in experiment [6] (setting [10]), 5.3; in [6] (setting [11]), 1.1; in experiment [6] (setting [12]), 7.4; in experiment [6] (setting [13]), 6.5. The “Coll73 Luciferase Activity” value is given as 2.1 in [6] (setting [14]), 3.1 in [6] (setting [15]), 2.2 in experiment [6] (setting [16]) and 2.1 in experiment [6] (setting [17]). Moreover, the “half maximal dose relative to that for estrogen, induction of coll73-LUC” value in experiment [6] is on record as approximately 100 times. Also, the “expression of ERE-coll60” value in [7] is reported as “neither ICI nor tamoxifen activated”. Also, the “inductions at classical EREs, % of estrogen” value in the experiment with ER at classical ERE (CEF cells), in the experiment on ER at classical ERE (CV-1 cells) and with ER at classical ERE (MDA453 cells) was 30% each time. The “inductions of ERE-coll60 activity relative to those obtained with estrogen” value in the experiment with ER at classical ERE (HeLa cells, and most other cases) is on record as “less than 3%”.
In the case of calphostin c, the “inhibition … by HE15” value in [2] is “did not”.
